The test system of data set [1] is HCT-116 human colon cancer cell line. The data set can be described thus: MTT cytotoxicity assay, HCT-116. The data set is classed as cell-based. The following applies: mean ± SD of three independent experiments. As for the experimental part: (§1) These phomoxanthone compounds (1–8) were evaluated for their cyctotoxic activity in vitro against four human cancer cell lines including human breast MDA-MB-435, human colon HCT-116, human lung Calu-3 and human liver Huh7, compared with their effects on the immortalized human breast epithelial cell line MCF-10A by MTT assay using epirubicin (an anticancer drug used widely in the clinic) as positive control.
(§2) MDA-MB-435, HCT-116, Calu-3 and Huh7 were cultured in Dulbecco’s modification Eagle’s medium (DMEM, Invitrogen, Carlsbad, CA, USA) supplemented with 10% fetal bovine serum (FBS, Hyclone, Logan, UT, USA), 2 mM L-glutamine, 100 μg/mL streptomycin and 100 U/mL penicillin (Invitrogen, Carlsbad, CA, USA). MCF-10A cells were cultured in keratinocyte serum free medium (KSFM) supplemented with 0.1–0.2 ng/mL human recombinant epidermal growth factor and 20–30 μg/mL bovine pituitary extract (Invitrogen, Carlsbad, CA, USA). The cells were incubated at 37 °C in a humidified atmosphere with 5% CO2.
(§3) Cells were harvested during logarithmic growth phase and seeded in 96-well plates at a density of 1 × 10^4 cells/mL, and cultured at 37 °C in a humidified incubator (5% CO2) for 24 h, followed by exposure to various concentrations of compounds tested for 48 h. Subsequently 20 μL of MTT (Genview, Houston, TX, USA) solution (5 mg/mL) was added to each well and mixed, the cells were then incubated for an additional 4 h. Culture supernatant was removed using the micropipette, 150 μL of DMSO (Sangon Biotech, Shanghai, China) was added to each well to fully dissolve the MTT-formazan crystals. Cell growth inhibition was determined by measuring the absorbance (Abs) at λ = 570 nm using a microplate reader and calculated according to the following equation: Growth inhibition = (1 − OD of treated cells/OD of control cells) × 100%
(§4) The half maximal inhibitory concentrations (IC50) were obtained from linear regression analysis of the concentration-response curves plotted for each tested compound.
In general terms: Tetrazolium assays rely on reduction of a dye to a coloured formazan, in cell work by metabolically active cells.

Data set [2] deals with four human cancer cell lines (MDA-MB-435, HCT-116, Calu-3, Huh7). Briefly: MTT cytotoxicity assay, tested cancer cell lines taken together. The data set is classed as cell-based. The note with it: for cytotoxic activities against tested cancer cell lines (in words): MDA-MB-435, HCT-116, Calu-3, Huh7. As for the experimental part: as §1, §2, §3, §4
Data set [3] has as its system MDA-MB-435 human breast cancer cell line. Briefly: MTT cytotoxicity assay, MDA-MB-435. In kind it is cell-based. The following applies: mean ± SD of three independent experiments. As for the experimental part: as §1, §2, §3, §4
Data set [4] concerns Calu-3 human lung cancer cell line. Briefly: MTT cytotoxicity assay, Calu-3. The note with it: mean ± SD of three independent experiments. The data set is classed as cell-based. As for the experimental part: as §1, §2, §3, §4
Data set [5] in a line: MTT cytotoxicity assay, MCF-10A. In kind it is cell-based, human. The note with it: human, MCF-10A cells, 48 h exposure, mean ± SD of three independent experiments. The procedure:
as §1, §2, §3, §4

Data set [6] has as its system MCF-10A immortalized human breast epithelial cell line. The data set can be described thus: MTT cytotoxicity assay, MCF-10A. In kind it is cell-based. The note with it: MCF-10A. The procedure: as §1, §2, §3, §4
Data set [7] relates to Huh7 human liver cancer cell line. Briefly: MTT cytotoxicity assay, Huh7. The data set is classed as cell-based. The note with it: Huh-7, 48 h exposure, mean ± SD of three independent experiments. As for the experimental part: as §1, §2, §3, §4
The test system of data set [8] is A549 (lung tumor). On the set-up: method as in PMID 11520215. The following applies: cited from earlier work.
Data set [9] concerns HCT-116 (colon tumor). Further details: method as in PMID 11520215. The note with it: cited from earlier work.
The mark [10] stands for this setting: Homo sapiens, HCT-116, 48 h, 48 h exposure.
The mark [11] stands for this setting: Homo sapiens, MDA-MB-435, 48 h, 48 h exposure.
The mark [12] stands for this setting: Homo sapiens, Calu-3, 48 h, 48 h exposure.
The mark [13] stands for this setting: Homo sapiens, HCT-116, 48 h exposure.
The mark [14] stands for this setting: Homo sapiens, Calu-3, 48 h exposure.

Where only a bound is given, the exact number is not on record here.

Regarding `CC(=O)OCC1(C2OC(=O)CC2C)CC(=O)c2c(O)ccc(-c3ccc4c(c3O)C(=O)C3=C(O)CC(C)C(OC(C)=O)C3(CO)O4)c2O1` (stereo not drawn) [Compound 1, Phomolactonexanthone A], the 50% inhibitory concentration (IC50) (as a rule, the concentration that inhibits the measured activity by half) in [1] (setting [10]) was over 50 µM; in data set [3] (setting [11]) it was over 50 µM; in data set [4] (setting [12]), 43.5 ± 2.51 µM; in data set [7], over 50 µM. For the same compound, the “cytotoxic activities against tested cancer cell lines (in words)” value (shortened to “cytotoxic activities”) in data set [2] (MTT) is reported as “weak/no cytotoxic activities”. In data set [5], this compound yielded an IC50 at 48 h of over 50 µM. For the same compound, the “cytotoxic effect on the immortalized human breast epithelial cell line (in words)” value (“cytotoxic effect” below) in data set [6] was “no cytotoxic effect”.

Take `CC(=O)O[C@@H]1[C@H](C)CC(O)=C2C(=O)c3c(ccc(-c4ccc5c(c4O)C(=O)C4=C(O)C[C@@H](C)[C@@H](OC(C)=O)[C@@]4(CO)O5)c3O)O[C@@]21CO` [Compound 4, dicerandrol A]: the IC50 was 2.64 ± 0.03 µM in [1] (setting [10]); under 10 µM in [2] (Homo sapiens, summary statement of the abstract, cell lines not specified, read-out: IC50 against tested cancer cell lines); 3.03 ± 0.12 µM in data set [3] (setting [11]); 1.76 ± 0.02 µM in data set [4] (setting [12]); 4.19 ± 0.08 µM in data set [7]. Besides, the “cytotoxic activities” value in [2] (MTT) was “significant cytotoxic activities”. Further, the IC50 at 48 h in data set [5] was 28.3 ± 3.57 µM. Further, the “cytotoxic effect” value in data set [6] is “displayed cytotoxic effect”. For the same compound, the “cytotoxic activity against A549 compared with dicerandrol B (in words)” value in data set [8] is given as “less cytotoxic activities than dicerandrol B”. For the same compound, the “cytotoxic activity against HCT-116 compared with dicerandrol B (in words)” value in data set [9] is given as “less cytotoxic activities than dicerandrol B”.

For `CC(=O)OC[C@]12Oc3ccc(-c4ccc5c(c4O)C(=O)C4=C(O)C[C@@H](C)[C@@H](OC(C)=O)[C@@]4(CO)O5)c(O)c3C(=O)C1=C(O)C[C@@H](C)[C@H]2OC(C)=O` [Compound 5, dicerandrol B], the half-maximal inhibitory concentration (IC50) is 8.65 ± 0.66 µM in data set [3] (48 h exposure), under 10 µM in data set [3] (setting [11]) and 30.4 ± 1.1 µM in data set [7]. Also, half-maximal inhibition in [5] (IC50 at 48 h) required 8.14 ± 1.27 µM. The “cytotoxic effect” value in data set [6] was “less marked cytotoxic effect”.

On to `CC(=O)OC[C@]12Oc3ccc(-c4ccc(O)c5c4O[C@@]4(CO)C(=C(O)C[C@@H](C)[C@H]4OC(C)=O)C5=O)c(O)c3C(=O)C1=C(O)C[C@@H](C)[C@H]2OC(C)=O` [Compound 8, penexanthone A], for which the IC50 is 6.92 ± 0.38 µM in data set [1] (48 h exposure); under 10 µM in data set [1] (setting [10]); 7.9 ± 0.58 µM in [3] (48 h exposure); under 10 µM in data set [3] (setting [11]); 6.44 ± 0.86 µM in data set [4] (48 h exposure); under 10 µM in [4] (setting [12]). In data set [7], this compound yielded an IC50 of 42.8 ± 3.58 µM. The compound also gave an IC50 at 48 h in [5] of 16.1 ± 1.57 µM. Moreover, in [6], the “cytotoxic effect” value is “less marked cytotoxic effect”.

For the compound `CC(=O)OCC1(C2OC(=O)CC2C)CC(=O)c2c(ccc(-c3ccc4c(c3O)C(=O)C3=C(O)CC(C)C(OC(C)=O)C3(CO)O4)c2O)O1` (stereo not drawn) [Compound 2, Phomolactonexanthone B], the melting point (in general, the temperature of the solid-liquid transition) lay within 101.6 to 102.4 °C. Also, in data set [1] (setting [13]), the half-maximal inhibitory concentration (IC50) was over 50 µM. The “cytotoxic activities” value in [2] (MTT) was “weak/no cytotoxic activities”. In [3] (Homo sapiens, MDA-MB-435, 48 h exposure), this compound had an IC50 of over 50 µM. This compound also gave a half-maximal inhibitory concentration (IC50) in data set [4] (setting [14]) of over 50 µM. The same compound yielded a 50% inhibitory concentration (IC50) at 48 h in [5] of over 50 µM. Besides, the “cytotoxic effect” value in data set [6] is on record as “no cytotoxic effect”. In data set [7], this compound had an IC50 of over 50 µM.

Regarding `CC(=O)O[C@@H]1[C@H](C)CC(O)=C2C(=O)c3c(ccc(-c4ccc(O)c5c4O[C@@]4(CO)C(=C(O)C[C@@H](C)[C@H]4OC(C)=O)C5=O)c3O)O[C@@]21CO` [Compound 7, deacetylphomoxanthone B], the IC50 turned out to be 7.12 ± 0.7 µM in data set [1] (setting [10]), 14.4 ± 1.18 µM in data set [3] (setting [11]), 4.14 ± 0.02 µM in [4] (setting [12]) and 29.2 ± 1.19 µM in [7]. In data set [2] (MTT), the “cytotoxic activities” value was “excellent selective activities against HCT-116 and Calu-3 cell lines over other cancer cell lines”. The same compound returned an IC50 at 48 h in data set [5] of over 50 µM. Further, the “cytotoxic effect” value in data set [6] was “no cytotoxic effect”.

On to `CC(=O)O[C@@H]1[C@H](C)CC(O)=C2C(=O)c3c(O)ccc(-c4ccc(O)c5c4O[C@@]4(CO)C(=C(O)C[C@@H](C)[C@H]4OC(C)=O)C5=O)c3O[C@@]21CO` [Compound 3, Deacetylphomoxanthone C], for which the IC50 in data set [1] (setting [10]) is 44.1 ± 3.29 µM; in data set [3] (setting [11]), over 50 µM; in data set [4] (setting [12]), 43.4 ± 2.09 µM; in [7] it was over 50 µM. In data set [2] (MTT), the “cytotoxic activities” value is “weak/no cytotoxic activities”. The compound further gave a 50% inhibitory concentration (IC50) at 48 h in [5] of over 50 µM. Also, the “cytotoxic effect” value in data set [6] is “no cytotoxic effect”.

`CC(=O)OC[C@]12Oc3ccc(-c4ccc5c(c4O)C(=O)C4=C(O)C[C@@H](C)[C@@H](OC(C)=O)[C@@]4(COC(C)=O)O5)c(O)c3C(=O)C1=C(O)C[C@@H](C)[C@H]2OC(C)=O` [Compound 6, dicerandrol C]: the IC50 in data set [1] (setting [10]) is 42.6 ± 2.9 µM; in [3] (setting [11]), 44.1 ± 2.45 µM; in [4] (setting [12]), 36.5 ± 3.32 µM; in [7], over 50 µM. The “anticancer activities against MDA-MB-435, HCT-116 and Calu-3 (in words)” value in data set [2] (MTT, MDA-MB-435, HCT-116, Calu-3) is recorded as “weak anticancer activities”. The compound further returned a concentration for half-maximal inhibition (IC50) at 48 h in data set [5] of 33 ± 2.74 µM.

Take `COc1cccc2c1C(=O)c1c(O)c3c(c(O)c1C2=O)C[C@@](O)(C(=O)CO)C[C@@H]3O[C@H]1C[C@H](N)[C@@H](O)[C@H](C)O1` [epirubicin, reference compound]: the results for the IC50 in [1] (setting [13]), in data set [4] (setting [14]) and in data set [7] were 0.48 ± 0.029 µM, 1.03 ± 0.1 µM and 0.96 ± 0.01 µM, respectively. In [5], this compound had an IC50 at 48 h of 0.48 ± 0.08 µM.

Source of the values: paper PMC3877896, “New Dimeric Members of the Phomoxanthone Family: Phomolactonexanthones A, B and Deacetylphomoxanthone C Isolated from the Fungus Phomopsis sp” (Marine Drugs, 2013).
